Laboratory results: patent US5672715A, “Herbicidal substituted 3-aryl-pyrazoles” (Monsanto Company, priority 1995, dated 1997)
Several values for one entry are separate records, joined by “and”; a condition that tells them apart may be missing. Equal values may be shown once.

Legend:
Type in all cases: in vivo
[1] = system: Bedstraw Catchweed; test: pre-emergence herbicide test; conditions: Galium aparine, pre-emergence, 0.25 lb/A; read-out: % plant inhibition
Description: (§1) Topsoil was placed in an aluminum pan and compacted to a depth of 1.3 to 1.6 cm from the top of the pan. On the top of the soil was placed a predetermined number of seeds of each of several monocotyledonous and dicotyledonous annual plant species and/or vegetative propagules of various perennial plant species. The pan was then level filled with a cover layer of topsoil to which was added a known amount of active ingredient either prior to or after application of the cover layer. The active ingredient was dissolved or suspended in an organic solvent, e.g., acetone, or water as carrier for application to the cover layer. The pans were moved to a greenhouse bench where they were thereafter watered from below as needed to give adequate moisture for germination and growth. In some cases, an initial overhead irrigation of 1/4 inch of water was applied immediately after treatment.
(§2) Approximately 14 days after seeding and treating, the pans were observed and the results (% inhibition) were recorded.
(§3) The tables below summarize the results of the pre-emergence herbicidal activity tests of compounds of this invention tested with warm season plants (Tables 2a-2d) and cool season plants (Tables 3a and 3b). The herbicidal rating shown in these tables is the percent inhibition of each plant species. The plant species usually regarded as weeds are identified in the tables by single letter headings and crop species identified by two letter headings both headings being above the columns in accordance with the following legend: […]

[2] = system: Birdseye Speedwell; test: pre-emergence herbicide test; conditions: pre-emergence, 0.25 lb/A; read-out: % plant inhibition
Description: as §1, §2, §3

[3] = system: Downy Brome; test: pre-emergence herbicide test; conditions: Bromus tectorum, pre-emergence, 0.25 lb/A; read-out: % plant inhibition
Description: as §1, §2, §3

[4] = system: Wild Oats; test: pre-emergence herbicide test; conditions: Avena fatua, pre-emergence, 0.25 lb/A; read-out: % plant inhibition
Description: as §1, §2, §3

[5] = system: Wheat; test: pre-emergence herbicide test; conditions: Triticum aestivum, pre-emergence, 0.25 lb/A; read-out: % plant inhibition
Description: as §1, §2, §3

[6] = system: Velvetleaf; test: pre-emergence herbicide test; conditions: Abutilon theophrasti, pre-emergence, 0.25 lb/A; read-out: % plant inhibition
Description: as §1, §2, §3

[7] = system: Common Chickweed; test: pre-emergence herbicide test; conditions: pre-emergence, 0.25 lb/A; read-out: % plant inhibition
Description: as §1, §2, §3

[8] = system: Soybean; test: pre-emergence herbicide test; conditions: 0.25 lb/A
Description: as §1, §2, §3

[9] = system: Rape; test: pre-emergence herbicide test; conditions: pre-emergence, 0.25 lb/A; read-out: % plant inhibition
Description: as §1, §2, §3

[10] = system: Green Foxtail; test: pre-emergence herbicide test; conditions: Setaria viridis, pre-emergence; 0.25 lb/A; read-out: % plant inhibition
Description: as §1, §2, §3

[11] = system: Blackgrass; test: pre-emergence herbicide test; conditions: Alopecurus myosuroides, pre-emergence, 0.25 lb/A; read-out: % plant inhibition
Description: as §1, §2, §3

[12] = system: Bedstraw Catchweed; test: post-emergence herbicide test; conditions: Galium aparine, post-emergence, 0.25 lb/A; read-out: % plant inhibition
Description: (§4) Topsoil was placed in aluminum pans having holes in the bottom and compacted to a depth of 1.3 to 1.6 cm from the top of the pan. A predetermined number of seeds of each of several dicotyledonous and monocotyledonous annual plant species and/or vegetative propagules for the perennial plant species were placed on the soil and pressed into the soil surface. The seeds and/or vegetative propagules were covered with soil and leveled. The pans were then placed on a bench in the greenhouse and watered either from overheard irrigation or by subirrigation as needed. After the plants reach the desired age (two to three weeks), each pan, is removed individually to a spraying chamber and sprayed by means of an atomizer, operating at a spray pressure of 170.3 kPa […] at the application rates noted. In the spray solution was an amount of an emulsifying agent mixture to give a spray solution or suspension which contains about 0.4% by volume of the emulsifier. The spray solution or suspension contained a sufficient amount of the candidate chemical in order to give application rates of the active ingredient corresponding to those shown in Tables 4 and 5, while applying a total amount of solution or suspension equivalent to 1870 L/Ha (200 gallons/acre). […] The post-emergent herbicidal activity shown in these tables is the percent inhibition of each plant species. Testing with warm season and cool season plants is shown in tables 4a-4d and […], respectively.

[13] = system: Birdseye Speedwell; test: post-emergence herbicide test; conditions: post-emergence, 0.25 lb/A; read-out: % plant inhibition
Description: as §4

[14] = system: Barnyardgrass; test: post-emergence herbicide test; conditions: Echinochloa crus-galli, post-emergence, 0.25 lb/A; read-out: % plant inhibition
Description: as §4

[15] = system: Giant Foxtail; test: post-emergence herbicide test; conditions: Setaria faberi, post-emergence, 0.25 lb/A; read-out: % plant inhibition
Description: as §4

[16] = system: Downy Brome; test: post-emergence herbicide test; conditions: Bromus tectorum, post-emergence, 0.25 lb/A; read-out: % plant inhibition
Description: as §4

[17] = system: Wild Oats; test: post-emergence herbicide test; conditions: Avena fatua, post-emergence, 0.25 lb/A; read-out: % plant inhibition
Description: as §4

[18] = system: Wheat; test: post-emergence herbicide test; conditions: Triticum aestivum, post-emergence, 0.25 lb/A; read-out: % plant inhibition
Description: as §4

[19] = system: Velvetleaf; test: post-emergence herbicide test; conditions: Abutilon theophrasti, post-emergence, 0.25 lb/A; read-out: % plant inhibition
Description: as §4

[20] = system: Cocklebur; test: post-emergence herbicide test; conditions: Xanthium strumarium, post-emergence, 0.25 lb/A; read-out: % plant inhibition
Description: as §4

[21] = system: Common Chickweed; test: post-emergence herbicide test; conditions: post-emergence, 0.25 lb/A; read-out: % plant inhibition
Description: as §4

[22] = system: Seedling Johnsongrass; test: post-emergence herbicide test; conditions: Sorghum halepense, post-emergence, 0.25 lb/A; read-out: % plant inhibition
Description: as §4

[23] = system: Soybean; test: post-emergence herbicide test; conditions: Glycine max, post-emergence, 0.25 lb/A; read-out: % plant inhibition
Description: as §4

[24] = system: Rape; test: post-emergence herbicide test; conditions: post-emergence, 0.25 lb/A; read-out: % plant inhibition
Description: as §4

[25] = system: Green Foxtail; test: post-emergence herbicide test; conditions: Setaria viridis, post-emergence, 0.25 lb/A; read-out: % plant inhibition
Description: as §4

[26] = system: Corn; test: post-emergence herbicide test; conditions: Zea mays, post-emergence, 0.25 lb/A; read-out: % plant inhibition
Description: as §4

[27] = system: Morning Glory; test: post-emergence herbicide test; conditions: Ipomoea, post-emergence, 0.25 lb/A; read-out: % plant inhibition
Description: as §4

[28] = system: Blackgrass; test: post-emergence herbicide test; conditions: Alopecurus myosuroides, post-emergence, 0.25 lb/A; read-out: % plant inhibition
Description: as §4

[29] = system: Corn; test: pre-emergence herbicide test; conditions: 0.25 lb/A
Description: as §1, §2, §3

Structure (SMILES)	inhibition at 280.212 g/ha [1]	inhibition at 280.212 g/ha [2]	inhibition at 280.212 g/ha [3]	inhibition at 280.212 g/ha [4]	inhibition at 280.212 g/ha [5]	inhibition at 280.212 g/ha [7]	inhibition at 280.212 g/ha [9]	inhibition at 280.212 g/ha [10]	inhibition at 280.212 g/ha [11]	inhibition at 280.212 g/ha [12]	inhibition at 280.212 g/ha [13]	inhibition at 280.212 g/ha [14]	inhibition at 280.212 g/ha [15]	inhibition at 280.212 g/ha [16]	inhibition at 280.212 g/ha [17]	inhibition at 280.212 g/ha [18]	inhibition at 280.212 g/ha [19]	inhibition at 280.212 g/ha [20]	inhibition at 280.212 g/ha [21]	inhibition at 280.212 g/ha [22]	further results
Cc1c(-c2cc(CO)c(Cl)cc2F)nn(C)c1C(F)(F)F [Compound 9, 2-Chloro-5-[1,4-dimethyl-5-(trifluoromethyl)-1H-pyrazol-3-yl]-4-fluorobenzenemethanol]	20%	90%	5%	5%	0%	90%	30%	100%	50%	50%	35%	25%	10%	25%	25%	13%	95%	35%	15%	20%	inhibition at 280.212 g/ha [6]: 98%; % plant inhibition [8]: 0%; inhibition at 280.212 g/ha [23]: 60%; inhibition at 280.212 g/ha [24]: 20%; inhibition at 280.212 g/ha [25]: 20%; inhibition at 280.212 g/ha [26]: 10%; inhibition at 280.212 g/ha [27]: 45%; inhibition at 280.212 g/ha [28]: 20%
Cc1cc(-c2nn(C)c(C(F)(F)F)c2C)c(F)cc1Cl [Compound 33]	45%	55%	10%	5%	0%	30%	10%	50%	40%	10%	15%	0%	0%	5%	5%	5%	10%	0%	10%	0%	% plant inhibition [8]: 5% and 0%; % plant inhibition [29]: 10%; inhibition at 280.212 g/ha [23]: 15%; inhibition at 280.212 g/ha [24]: 5%; inhibition at 280.212 g/ha [25]: 15%; inhibition at 280.212 g/ha [26]: 0%; inhibition at 280.212 g/ha [27]: 10%; inhibition at 280.212 g/ha [28]: 5%
COCc1cc(-c2nn(C)c(C(F)(F)F)c2C)c(F)cc1Cl [Compound 11]	75%	95%	10%	20%	0%	25%	15%	100%	60%	50%	60%	0%	0%	10%	5%	6%	50%	15%	10%	5%	inhibition at 280.212 g/ha [23]: 20%; inhibition at 280.212 g/ha [24]: 5%; inhibition at 280.212 g/ha [25]: 25%; inhibition at 280.212 g/ha [26]: 15%; inhibition at 280.212 g/ha [27]: 25%; inhibition at 280.212 g/ha [28]: 15%
Cc1c(-c2cc(CBr)c(Cl)cc2F)nn(C)c1C(F)(F)F [Compound 10, 3-[5-(Bromomethyl)-4-chloro-2-fluorophenyl]-1,4-dimethyl-5-(trifluoromethyl)-1H-pyrazole]	30%	50%	25%	5%	0%	5%	50%	98%	20%	25%	90%	5%	15%	25%	10%	10%	90%	55%	15%	15%	inhibition at 280.212 g/ha [23]: 8%; inhibition at 280.212 g/ha [24]: 35%; inhibition at 280.212 g/ha [25]: 50%; inhibition at 280.212 g/ha [26]: 3%; inhibition at 280.212 g/ha [27]: 35%; inhibition at 280.212 g/ha [28]: 20%
CC(C)OC(=O)c1cc(-c2nn(C)c(C(F)(F)F)c2C=O)c(F)cc1Cl [Compound 12, 2-Chloro-4-fluoro-5-[4-formyl-1-methyl-5-(trifluoromethyl)-1H-pyrazol-3-yl]benzoic acid, 1-methylethyl ester]	65%	80%	60%	60%	5%	85%	15%	98%	60%	95%	100%	80%	35%	90%	85%	30%	99%	98%	100%	65%	inhibition at 280.212 g/ha [23]: 85%; inhibition at 280.212 g/ha [24]: 100%; inhibition at 280.212 g/ha [25]: 90%; inhibition at 280.212 g/ha [26]: 15%; inhibition at 280.212 g/ha [27]: 99%; inhibition at 280.212 g/ha [28]: 50%
